Measured values reported in ChEMBL document CHEMBL3046822, “Synthesis, antiplatelet aggregation activity, and molecular modeling study of novel substituted-piperazine analogues” (2011).
Activity calls are given as the source filed them. The calls are words filed in the database; no cut-off is given here.

Tests used:
[1] = Antiaggregating activity in Homo sapiens (human) platelet rich plasma assessed as ADP-induced platelet aggregation at 10 uM incubated for 4 min prior to ADP-induction measured for 5.5 min by turbidometric analysis (reference value: 54 to 88%); format: functional
Platelet [2] = assay: Antiaggregating activity in Homo sapiens (human) platelet rich plasma assessed as inhibition of ADP-induced platelet aggregation at 50 uM incubated for 4 min prior to ADP-induction measured for 5.5 min by turbidometric analysis; format: functional, cell-free
[3] = Antiaggregating activity in Homo sapiens (human) platelet rich plasma assessed as arachidonic acid-induced platelet aggregation at 10 uM incubated for 4 min prior to arachidonic acid-induction measured for 5.5 min by turbidometric analysis (reference value: 55 to 100%); format: functional
Platelet [4] = assay: Antiaggregating activity in Homo sapiens (human) platelet rich plasma assessed as inhibition of arachidonic acid-induced platelet aggregation at 50 uM incubated for 4 min prior to arachidonic acid-induction measured for 5.5 min by turbidometric analysis; format: functional, cell-free
[5] = Antiaggregating activity in Homo sapiens (human) platelet rich plasma assessed as ristocetin-induced platelet aggregation at 10 uM incubated for 4 min prior to ristocetin-induction measured for 5.5 min by turbidometric analysis (reference value: 65 to 99%); format: functional
[6] = Antiaggregating activity in Homo sapiens (human) platelet rich plasma assessed as adrenaline-induced platelet aggregation at 1 uM incubated for 4 min prior to adrenaline-induction measured for 5.5 min by turbidometric analysis (reference value: 65 to 100%); format: functional
[7] = Antiaggregating activity in Homo sapiens (human) platelet rich plasma assessed as ristocetin-induced platelet aggregation at 1 uM incubated for 4 min prior to ristocetin-induction measured for 5.5 min by turbidometric analysis (reference value: 65 to 99%); format: functional
[8] = Antiaggregating activity in Homo sapiens (human) platelet rich plasma assessed as ADP-induced platelet aggregation at 1 uM incubated for 4 min prior to ADP-induction measured for 5.5 min by turbidometric analysis (reference value: 54 to 88%); format: functional
[9] = Antiaggregating activity in Homo sapiens (human) platelet rich plasma assessed as collagen-induced platelet aggregation at 1 uM incubated for 4 min prior to collagen-induction measured for 5.5 min by turbidometric analysis (reference value: 50 to 98%); format: functional
[10] = Antiaggregating activity in Homo sapiens (human) platelet rich plasma assessed as adrenaline-induced platelet aggregation at 10 uM incubated for 4 min prior to adrenaline-induction measured for 5.5 min by turbidometric analysis (reference value: 65 to 100%); format: functional
Platelet [11] = assay: Antiaggregating activity in Homo sapiens (human) platelet rich plasma assessed as inhibition of adrenaline-induced platelet aggregation at 50 uM incubated for 4 min prior to adrenaline-induction measured for 5.5 min by turbidometric analysis; format: functional, cell-free
Platelet [12] = assay: Antiaggregating activity in Homo sapiens (human) platelet rich plasma assessed as inhibition of collagen-induced platelet aggregation at 50 uM incubated for 4 min prior to collagen-induction measured for 5.5 min by turbidometric analysis; format: functional, cell-free
[13] = Antiaggregating activity in Homo sapiens (human) platelet rich plasma assessed as collagen-induced platelet aggregation at 10 uM incubated for 4 min prior to collagen-induction measured for 5.5 min by turbidometric analysis (reference value: 50 to 98%); format: functional
[14] = Antiaggregating activity in Homo sapiens (human) platelet rich plasma assessed as ristocetin-induced platelet aggregation at 50 uM incubated for 4 min prior to ristocetin-induction measured for 5.5 min by turbidometric analysis (reference value: 65 to 99%); format: functional
[15] = Antiaggregating activity in Homo sapiens (human) platelet rich plasma assessed as arachidonic acid-induced platelet aggregation at 1 uM incubated for 4 min prior to arachidonic acid-induction measured for 5.5 min by turbidometric analysis (reference value: 55 to 100%); format: functional
[16] = Antiaggregating activity in Homo sapiens (human) platelet rich plasma assessed as ADP-induced platelet aggregation at 0.1 uM incubated for 4 min prior to ADP-induction measured for 5.5 min by turbidometric analysis (reference value: 54 to 88%); format: functional
Platelet [17] = assay: Antiaggregating activity in Homo sapiens (human) platelet rich plasma assessed as inhibition of arachidonic acid-induced platelet aggregation at 1 uM incubated for 4 min prior to arachidonic acid-induction measured for 5.5 min by turbidometric analysis; format: functional, cell-free
Platelet [18] = assay: Antiaggregating activity in Homo sapiens (human) platelet rich plasma assessed as inhibition of ADP-induced platelet aggregation at 0.8 uM incubated for 4 min prior to ADP-induction measured for 5.5 min by turbidometric analysis; format: functional, cell-free
Platelet [19] = assay: Antiaggregating activity in Homo sapiens (human) platelet rich plasma assessed as inhibition of adrenaline-induced platelet aggregation at 0.5 uM incubated for 4 min prior to adrenaline-induction measured for 5.5 min by turbidometric analysis; format: functional, cell-free
Platelet [20] = assay: Antiaggregating activity in Homo sapiens (human) platelet rich plasma assessed as inhibition of adrenaline-induced platelet aggregation at 1 uM incubated for 4 min prior to adrenaline-induction measured for 5.5 min by turbidometric analysis; format: functional, cell-free
Platelet [21] = assay: Antiaggregating activity in Homo sapiens (human) platelet rich plasma assessed as inhibition of adrenaline-induced platelet aggregation at 0.1 uM incubated for 4 min prior to adrenaline-induction measured for 5.5 min by turbidometric analysis; format: functional, cell-free
Platelet [22] = assay: Antiaggregating activity in Homo sapiens (human) platelet rich plasma assessed as inhibition of adrenaline-induced platelet aggregation at 2 uM incubated for 4 min prior to adrenaline-induction measured for 5.5 min by turbidometric analysis; format: functional, cell-free
Platelet [23] = assay: Antiaggregating activity in Homo sapiens (human) platelet rich plasma assessed as inhibition of collagen-induced platelet aggregation at 0.8 uM incubated for 4 min prior to collagen-induction measured for 5.5 min by turbidometric analysis; format: functional, cell-free
[24] = Antiaggregating activity in Homo sapiens (human) platelet rich plasma assessed as ristocetin-induced platelet aggregation at 0.5 uM incubated for 4 min prior to ristocetin-induction measured for 5.5 min by turbidometric analysis (reference value: 65 to 99%); format: functional
[25] = Antiaggregating activity in Homo sapiens (human) platelet rich plasma assessed as ADP-induced platelet aggregation at 0.5 uM incubated for 4 min prior to ADP-induction measured for 5.5 min by turbidometric analysis (reference value: 54 to 88%); format: functional
Platelet [26] = assay: Antiaggregating activity in Homo sapiens (human) platelet rich plasma assessed as inhibition of ADP-induced platelet aggregation at 2 uM incubated for 4 min prior to ADP-induction measured for 5.5 min by turbidometric analysis; format: functional, cell-free
Platelet [27] = assay: Antiaggregating activity in Homo sapiens (human) platelet rich plasma assessed as inhibition of ADP-induced platelet aggregation at 1 uM incubated for 4 min prior to ADP-induction measured for 5.5 min by turbidometric analysis; format: functional, cell-free
[28] = Antiaggregating activity in Homo sapiens (human) platelet rich plasma assessed as collagen-induced platelet aggregation at 0.5 uM incubated for 4 min prior to collagen-induction measured for 5.5 min by turbidometric analysis (reference value: 50 to 98%); format: functional
Platelet [29] = assay: Antiaggregating activity in Homo sapiens (human) platelet rich plasma assessed as inhibition of collagen-induced platelet aggregation at 2 uM incubated for 4 min prior to collagen-induction measured for 5.5 min by turbidometric analysis; format: functional, cell-free
[30] = Antiaggregating activity in Homo sapiens (human) platelet rich plasma assessed as collagen-induced platelet aggregation at 0.1 uM incubated for 4 min prior to collagen-induction measured for 5.5 min by turbidometric analysis (reference value: 50 to 98%); format: functional
Platelet [31] = assay: Antiaggregating activity in Homo sapiens (human) platelet rich plasma assessed as inhibition of collagen-induced platelet aggregation at 1 uM incubated for 4 min prior to collagen-induction measured for 5.5 min by turbidometric analysis; format: functional, cell-free
Platelet [32] = assay: Antiaggregating activity in Homo sapiens (human) platelet rich plasma assessed as inhibition of adrenaline-induced platelet aggregation at 0.8 uM incubated for 4 min prior to adrenaline-induction measured for 5.5 min by turbidometric analysis; format: functional, cell-free
[33] = Antiaggregating activity in Homo sapiens (human) platelet rich plasma assessed as ristocetin-induced platelet aggregation at 0.8 uM incubated for 4 min prior to ristocetin-induction measured for 5.5 min by turbidometric analysis (reference value: 65 to 99%); format: functional
Platelet [34] = assay: Antiaggregating activity in Homo sapiens (human) platelet rich plasma assessed as inhibition of ristocetin-induced platelet aggregation at 2 uM incubated for 4 min prior to ristocetin-induction measured for 5.5 min by turbidometric analysis; format: functional, cell-free
[35] = Antiaggregating activity in Homo sapiens (human) platelet rich plasma assessed as ristocetin-induced platelet aggregation at 0.1 uM incubated for 4 min prior to ristocetin-induction measured for 5.5 min by turbidometric analysis (reference value: 65 to 99%); format: functional
[36] = Antiaggregating activity in Homo sapiens (human) platelet rich plasma assessed as arachidonic acid-induced platelet aggregation at 0.1 uM incubated for 4 min prior to arachidonic acid-induction measured for 5.5 min by turbidometric analysis (reference value: 55 to 100%); format: functional
Platelet [37] = assay: Antiaggregating activity in Homo sapiens (human) platelet rich plasma assessed as inhibition of arachidonic acid-induced platelet aggregation at 0.8 uM incubated for 4 min prior to arachidonic acid-induction measured for 5.5 min by turbidometric analysis; format: functional, cell-free
[38] = Antiaggregating activity in Homo sapiens (human) platelet rich plasma assessed as arachidonic acid-induced platelet aggregation at 0.5 uM incubated for 4 min prior to arachidonic acid-induction measured for 5.5 min by turbidometric analysis (reference value: 55 to 100%); format: functional
Platelet [39] = assay: Antiaggregating activity in Homo sapiens (human) platelet rich plasma assessed as inhibition of arachidonic acid-induced platelet aggregation at 2 uM incubated for 4 min prior to arachidonic acid-induction measured for 5.5 min by turbidometric analysis; format: functional, cell-free
[40] = Antiaggregating activity in Homo sapiens (human) platelet rich plasma assessed as ADP-induced platelet aggregation at 2 uM incubated for 4 min prior to ADP-induction measured for 5.5 min by turbidometric analysis (reference value: 54 to 88%); format: functional
[41] = Antiaggregating activity in Homo sapiens (human) platelet rich plasma assessed as ristocetin-induced platelet aggregation at 5 uM incubated for 4 min prior to ristocetin-induction measured for 5.5 min by turbidometric analysis (reference value: 65 to 99%); format: functional
Platelet [42] = assay: Antiaggregating activity in Homo sapiens (human) platelet rich plasma assessed as inhibition of adrenaline-induced platelet aggregation at 5 uM incubated for 4 min prior to adrenaline-induction measured for 5.5 min by turbidometric analysis; format: functional, cell-free
[43] = Antiaggregating activity in Homo sapiens (human) platelet rich plasma assessed as ristocetin-induced platelet aggregation at 2 uM incubated for 4 min prior to ristocetin-induction measured for 5.5 min by turbidometric analysis (reference value: 65 to 99%); format: functional
[44] = Antiaggregating activity in Homo sapiens (human) platelet rich plasma assessed as disaggregation of ADP-induced platelet aggregation at 5 uM incubated for 4 min prior to ADP-induction measured for 5.5 min by turbidometric analysis relative to control; format: functional
Platelet [45] = assay: Antiaggregating activity in Homo sapiens (human) platelet rich plasma assessed as inhibition of collagen-induced platelet aggregation at 5 uM incubated for 4 min prior to collagen-induction measured for 5.5 min by turbidometric analysis; format: functional, cell-free
[46] = Antiaggregating activity in Homo sapiens (human) platelet rich plasma assessed as adrenaline-induced platelet aggregation at 2 uM incubated for 4 min prior to adrenaline-induction measured for 5.5 min by turbidometric analysis (reference value: 65 to 100%); format: functional
[47] = Antiaggregating activity in Homo sapiens (human) platelet rich plasma assessed as collagen-induced platelet aggregation at 2 uM incubated for 4 min prior to collagen-induction measured for 5.5 min by turbidometric analysis (reference value: 50 to 98%); format: functional
[48] = Antiaggregating activity in Homo sapiens (human) platelet rich plasma assessed as disaggregation of arachidonic acid-induced platelet aggregation at 2 uM incubated for 4 min prior to arachidonic acid-induction measured for 5.5 min by turbidometric analysis relative to control; format: functional
Platelet [49] = assay: Antiaggregating activity in Homo sapiens (human) platelet rich plasma assessed as inhibition of arachidonic acid-induced platelet aggregation at 5 uM incubated for 4 min prior to arachidonic acid-induction measured for 5.5 min by turbidometric analysis; format: functional, cell-free

O=C(c1ccc[n+](Cc2ccc(C[n+]3cccc(C(=O)N4CCN(c5ncccn5)CC4)c3)cc2)c1)N1CCN(c2ncccn2)CC1.[Br-].[Br-]
Activity [1]: 71%
inhibition (Platelet [2]): Active
Activity [3]: 71%
inhibition (Platelet [4]): Active
Activity [5]: 82%
Activity [6]: 73%
Activity [7]: 78%
Activity [8]: 70%
Activity [9]: 73%
Activity [10]: 28%
inhibition (Platelet [11]): Active
inhibition (Platelet [12]): Active
Activity [13]: 82%
Activity [14]: 73%
Activity [15]: 70%

COc1cc(C(=O)N2CCCC(C(=O)N3CCN(c4ncccn4)CC3)C2)cc(OC)c1OC.Cl (stereo not given)
Activity [16]: 72%
inhibition (Platelet [17]): Active
inhibition (Platelet [18]): Active
inhibition (Platelet [19]): Active
inhibition (Platelet [20]): Active
inhibition (Platelet [21]): Active
inhibition (Platelet [22]): Active
inhibition (Platelet [23]): Active
Activity [7]: 75%
Activity [24]: 68%
Activity [25]: 50%
inhibition (Platelet [26]): Active
inhibition (Platelet [27]): Active
Activity [28]: 78%
inhibition (Platelet [29]): Active
Activity [30]: 67%
inhibition (Platelet [31]): Active
inhibition (Platelet [32]): Active
Activity [33]: 55%
inhibition (Platelet [34]): Active
Activity [35]: 77%
Activity [36]: 76%
inhibition (Platelet [37]): Active
Activity [38]: 54%
inhibition (Platelet [39]): Active

O=C(c1ccc[n+](Cc2ccc(C[n+]3cccc(C(=O)N4CCN(c5ccccc5Cl)CC4)c3)cc2)c1)N1CCN(c2ccccc2Cl)CC1.[Br-].[Br-]
Activity [40]: 79%
Activity [41]: 51%
inhibition (Platelet [42]): Active
Activity [6]: 22%
Activity [43]: 65%
Activity [7]: 78%
Activity [44]: 13%
Activity [8]: 91%
inhibition (Platelet [45]): Active
Activity [9]: 84%
Activity [46]: 21%
Activity [47]: 26%
Activity [48]: 16%
inhibition (Platelet [49]): Active
Activity [15]: 40%
